Test results from US20170050966A1, “INHIBITING THE TRANSIENT RECEPTOR POTENTIAL A1 ION CHANNEL” (HYDRA BIOSCIENCES, INC., priority 2014, published 2017).
Converted amounts (≈) assume the structure as drawn. Like-named read-outs stand apart in the source and are kept apart here.

Experiments:
CYP2C9 = CYP2C9 (Homo sapiens, UniProt P11712); assay: in vitro; details: probe Diclofenac
[1] = Oral PK and bioavailability of micronized Compound 2 suspension; assay type: in vivo, Sprague-Dawley rats
Description: Additional studies were conducted with micronized Compound 2 in rat, dogs (beagles), and cynomolgus monkeys. Animals received a 10 mg/kg dose oral dose of compound formulated as a suspension in 0.5% methyl cellulose in water for injection at a target concentration of 1 mg/mL, and administered a dose volume of 10 mL/kg by oral gavage in rats or fasted dogs and via oral delivery in fasted cynomolgus monkeys. The % F for the rats in these studies was 85%, 36% for the dogs, and 19% for the monkeys. FIG. 11 depicts the pharmacokinetic profile for these species.
Several in vivo studies were performed to characterize the bioavailability of Compound 2. In Sprague-Dawley rats, a single oral dose of 10 mg/kg to 1000 mg/kg of Compound 2 were compared in a series of experiments. Compound 2 used in these studies was recrystallized from ethanol and micronized.

[2] = Plasma protein binding, equilibrium dialysis; assay type: in vitro ADME; details: pooled K2EDTA plasma, read-out: Mean % Bound ± SD (converted)
Description: With this method, free compound is separated from protein-bound compound by dialysis across a semi-permeable membrane.
The protein binding was tested at a concentration of 1 μM. Pooled human, cynomolgus monkey, dog, and rat K2EDTA plasma was thawed and centrifuged at 2000×g for 10 minutes at 4° C. to remove particulates; any lipid on the top of the supernatant was also removed by aspiration. The plasma was warmed to 37° C. for 10 minutes before use. Test compounds were spiked into 2 ml plasma in a polypropylene plate to a final concentration of 1 μM. Triplicate 400 μl aliquots of spiked plasma were transferred into the Thermo RED dialysis units and dialyzed against 600 μl of PBS buffer. […] After 6 hours dialysis, triplicate 50 μl aliquots were removed from the RED plate, matrix-matched with either PBS buffer or blank plasma, as appropriate, and quenched with 4 volumes of ACN containing an internal standard. The extracted samples were then centrifuged at 2000×g for 5 minutes at 4° C. The supernatant (50 μl) was removed and diluted with 100 μl water prior to LC/MS/MS bioanalysis.

[3] = Kinetic solubility in buffered solutions; assay type: physicochemical; details: aqueous buffer, kinetic from dmso stock, 24 hours ambient
Description: The solubilities of the compounds of Formula (I) were tested using the procedure outlined in Kerns, E. H., J Pharm Sci (2001) 90:1838-1858, incorporated herein by reference and described below. Data for solubility was obtained by this method for compounds of Formula (I) and included in Table 3. The chromatographic data was performed by HPLC using an Xbridge Shield RP18 column with the following column dimensions: 4.6×30 mm, 3.5 μm. The mobile phase consisted of deionized water (MPA) with trifluoroacetic acid added in at 0.1% (v/v) (MPC) and HPLC-grade acetonitrile (MPB). The mobile phase flow rate was 2.5 mL/min with the column and sampling operating at ambient temperature. UV detection was set to 280 nm.
Samples for analysis of the compounds of Formula (I) were prepared at a % v/v=1/19 (i.e., 10 μL of the stock solution into 190 μL of buffer) by spiking stock solutions of the compounds of Formula (I) into buffered solutions. Three buffered solution systems were prepared: pH 4.0 prepared from 50 mM sodium acetate in a 5% dextrose in water solution, pH 7.4 prepared from 75 mM sodium phosphate in a 1:1 ratio of sterilized water for injection to a 5% dextrose in water solution, and pH 9.0 prepared from 50 mM sodium bicarbonate in a 1:2 ratio of sterilized water for injection to a 5% dextrose in water solution. The samples were incubated on a microplate shaker at 300 rpm for 24 hours at ambient temperature. Following incubation, the samples were centrifuged for five minutes at 13 k rpm at ambient temperature. The resulting supernantant was extracted for HPLC analysis.

sprague-dawley rats = assay: Hepatotoxicity safety profile, serum biomarkers; assay type: in vivo; details: for ALP d28 / ALT d28 / AST d28 / GGT d28: day 28
Description: Compound 2 in the vehicle (0.5% methylcellulose [400 cps]) was administered orally by gavage once daily for a minimum of 28 consecutive days to 3 groups of sprague-dawley rats from Charles River Laboratories. Each group received one dosage level. Dosage levels were 30, 100, and 300 mg/kg/day for each group. […] The dose volume was 10 ml/kg for all groups. Hepatoxicity was measured via the serum biomarkers of alanine aminotransferease [ALT], aspartate aminotransferase [AST], alkaline phosphastase [ALP] and gamma-glutamyl transferase [GGT] which represent hepatotoxicity or bile duct injury.

[4] = Plasma levels in CFA cold hypersensitivity study; assay type: in vivo, rat
Excerpt: Table 16 summarizes the average plasma levels of Compound 2 and Compound A. Approximately dose proportional exposures of Compound 2 were observed throughout the dose range tested. Decreased plasma binding of Compound 2 indicates an improved bioavailability of Compound 2 to the subjects over Compound A.

CYP1A2 = molecular target: T1, CYP1A2 (Homo sapiens, UniProt P05177); assay: CYP450 inhibition at 10 μM; assay type: biochemical; details: probe Phenacetin, 1A2, substrate Phenacetin
T1 sequence (P05177 1-516): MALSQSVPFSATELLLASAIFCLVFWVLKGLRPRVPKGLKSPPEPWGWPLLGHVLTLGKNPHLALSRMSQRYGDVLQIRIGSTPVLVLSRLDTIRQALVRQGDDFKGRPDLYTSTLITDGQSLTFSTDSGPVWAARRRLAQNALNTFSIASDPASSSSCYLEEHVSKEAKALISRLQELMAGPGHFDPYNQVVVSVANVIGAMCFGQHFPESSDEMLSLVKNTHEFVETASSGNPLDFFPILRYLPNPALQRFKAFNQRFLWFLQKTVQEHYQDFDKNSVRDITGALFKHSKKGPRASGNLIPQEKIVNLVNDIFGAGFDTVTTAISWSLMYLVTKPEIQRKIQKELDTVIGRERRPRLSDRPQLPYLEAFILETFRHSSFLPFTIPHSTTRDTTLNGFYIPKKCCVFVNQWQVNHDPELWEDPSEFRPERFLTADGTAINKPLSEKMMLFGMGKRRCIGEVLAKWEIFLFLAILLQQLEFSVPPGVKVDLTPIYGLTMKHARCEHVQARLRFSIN

[5] = sodium acetate buffer, pH 4.0, 50 mM sodium acetate, read-out: pH 4.0 solubility
[6] = sodium bicarbonate buffer, pH 9.0, 50 mM sodium bicarbonate, read-out: pH 9.0 solubility
[7] = sodium phosphate buffer, pH 7.4, 75 mM sodium phosphate, read-out: pH 7.4 solubility

Chain of CYP2C9 (P11712 whole entry): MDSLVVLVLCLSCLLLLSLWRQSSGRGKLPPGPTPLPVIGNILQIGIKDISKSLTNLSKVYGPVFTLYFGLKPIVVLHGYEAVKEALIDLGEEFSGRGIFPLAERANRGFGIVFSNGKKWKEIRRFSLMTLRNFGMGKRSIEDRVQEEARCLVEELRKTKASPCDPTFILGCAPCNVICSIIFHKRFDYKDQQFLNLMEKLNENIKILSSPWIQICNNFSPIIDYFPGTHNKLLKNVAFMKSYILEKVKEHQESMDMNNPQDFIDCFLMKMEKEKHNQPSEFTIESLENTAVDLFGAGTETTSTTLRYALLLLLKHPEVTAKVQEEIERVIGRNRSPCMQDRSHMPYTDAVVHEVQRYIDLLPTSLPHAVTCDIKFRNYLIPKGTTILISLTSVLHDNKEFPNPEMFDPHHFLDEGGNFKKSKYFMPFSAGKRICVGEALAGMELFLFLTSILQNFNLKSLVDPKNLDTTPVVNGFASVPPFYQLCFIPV

In the case of `C[C@@H](C(=O)Nc1ccnc(-c2cnc(N3CCC[C@H]3C(F)(F)F)nc2)n1)n1cnc2c1c(=O)n(C)c(=O)n2C` [Compound 2, (S)-2-(1,3-dimethyl-2,6-dioxo-2,3-dihydro-1H-purin-7(6H)-yl)-N-(2′-((S)-2-(trifluoromethyl)pyrrolidin-1-yl)-[2,5′-bipyrimidin]-4-yl)propanamide], the inhibition at 10 µM (CYP2C9) is reported as 22%, the “Exposures based on AUC and Cmax versus dose” value ([1]; Sprague-Dawley rats, single oral dose 10 mg/kg to 1000 mg/kg) is reported as “increased with doses up to 1000 mg/kg” and the bioavailability ([1]; Sprague-Dawley, rat, plasma, rats, 10 mg/kg oral, micronized suspension in 0.5% methyl cellulose) is reported as 85%. The fraction unbound at 6 h, 1 μM ([2]; Human plasma) was 0.015, the fraction unbound at 6 h, 1 μM ([2]; Sprague dawley rat plasma) was 0.047 and the solubility kinetic at 24 h [3, 5] was 85 µg/mL (≈ 156 µM). The solubility kinetic at 24 h [3, 6] was 69 µg/mL (≈ 127 µM), the solubility kinetic at 24 h [3, 7] was 71 µg/mL (≈ 130 µM) and the “ALP d28” value (sprague-dawley rats; 30 mg/kg/day oral) was 168.0 U/L. The “ALT d28” value (sprague-dawley rats; 30 mg/kg/day oral) was 33.0 U/L, the “AST d28” value (sprague-dawley rats; 30 mg/kg/day oral) was 98.0 U/L and the “GGT d28” value (sprague-dawley rats; 30 mg/kg/day oral) was 0.0 U/L. For the same molecule, the “ALP d28” value (sprague-dawley rats; 100 mg/kg/day oral) was 185.0 U/L, the “ALT d28” value (sprague-dawley rats; 100 mg/kg/day oral) was 34.0 U/L and the “AST d28” value (sprague-dawley rats; 100 mg/kg/day oral) was 100.0 U/L. The “GGT d28” value (sprague-dawley rats; 100 mg/kg/day oral) was 0.0 U/L, the “ALP d28” value (sprague-dawley rats; 300 mg/kg/day oral) was 163.0 U/L and the “ALT d28” value (sprague-dawley rats; 300 mg/kg/day oral) was 43.0 U/L. The “AST d28” value (sprague-dawley rats; 300 mg/kg/day oral) was 115.0 U/L, the “GGT d28” value (sprague-dawley rats; 300 mg/kg/day oral) was 0.0 U/L and the “serum biomarkers of hepatotoxicity (ALT, AST, ALP, GGT)” value (sprague-dawley rats; sprague-dawley rats, oral once daily for 28 days) was “did not elevate the serum biomarkers up to and including a dose of 300 mg/kg”. It also gave a PLASMA ([4]; 0.3 mg/kg PO) of 70 ± 11 ng/mL, a PLASMA ([4]; 1 mg/kg PO) of 265 ± 56 ng/mL and a PLASMA ([4]; 3 mg/kg PO) of 800 ± 160 ng/mL. It also gave a PLASMA ([4]; 10 mg/kg PO) of 2780 ± 425 ng/mL and an inhibition at 10 µM (CYP1A2) of 9%.

`C[C@@H](C(=O)Nc1ccnc(-c2cnc(N3CCCC3(C)C)nc2)n1)n1cnc2c1c(=O)n(C)c(=O)n2C` [Compound 1, (S)-2-(1,3-dimethyl-2,6-dioxo-2,3-dihydro-1H-purin-7(6H)-yl)-N-(2′-(2,2-dimethylpyrrolidin-1-yl)-[2,5′-bipyrimidin]-4-yl)propanamide] gave a solubility kinetic at 24 h [3, 5] of 4 µg/mL (≈ 7.93 µM), a solubility kinetic at 24 h [3, 6] of 2 µg/mL (≈ 3.96 µM) and a solubility kinetic at 24 h [3, 7] of 3 µg/mL (≈ 5.95 µM).
